Measured values reported in US6914045B2, “Glycopeptide antibiotics” (Wyeth Holdings Corporation, priority 2001, dated 2005).
Converted amounts (≈) assume the structure as drawn.

Tests used:
Test in all cases: in vitro antibacterial evaluation, MIC by broth dilution
Format in all cases: cell-based
Escherichia coli = conditions: 18 hours at 35° C.
Enterococcus sp. = conditions: broth dilution, 18 hours at 35° C.
Summary of the method: (§1)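 Test organisms, which included recent clinical isolates resistant to methicillin, penicillin and/or vancomycin, were inoculated at 5×10^5 CFU/mL into Muller-Hinton II […] containing antibiotic at 64-0.06 μg/mL. Minimum inhibitory concentrations were then read as the lowest level inhibiting growth.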

Streptococcus sp. = conditions: broth dilution, 18 hours at 35° C.
Summary of the method: as §1

Staphylococcus sp. = conditions: broth dilution, 18 hours at 35° C.; for MIC Staphylococcus aureus (GC 1131): strain GC 1131
Summary of the method: as §1

## COc1ccc2cc(C3OCC4OC(OC5C(CO)OC(Oc6ccc(CC7NC(=O)C(C(C)c8ccccc8)NC(=O)CNC(=O)C(CO)NC(=O)C(CC8CNC(=N)N8C8OC(CO)C(O)C(O)C8O)NC(=O)C(CC8CNC(=N)N8)NC7=O)cc6)C(O)C5O)C(O)C(O)C4O3)ccc2c1 (centres unmarked) [Example 190]
Escherichia coli
  MIC Escherichia coli (ATCC 25922): >64 µg/mL
  MIC Escherichia coli (GC 4559): >64 µg/mL
  MIC Escherichia coli (GC 4560): 16 µg/mL (≈ 11.2 µM)
Enterococcus sp.
  MIC Enterococcus avium (GC 4558): 16 µg/mL (≈ 11.2 µM)
  MIC Enterococcus faecalis (ATCC 29212): 32 µg/mL (≈ 22.4 µM)
  MIC Enterococcus faecalis (GC 2242): 32 µg/mL (≈ 22.4 µM)
  MIC Enterococcus faecalis (GC 2691): 32 µg/mL (≈ 22.4 µM)
  MIC Enterococcus faecalis (GC 3059): 32 µg/mL (≈ 22.4 µM)
  MIC Enterococcus faecalis (GC 4552): 32 µg/mL (≈ 22.4 µM)
  MIC Enterococcus faecalis (GC 4553): 32 µg/mL (≈ 22.4 µM)
  MIC Enterococcus faecalis (GC 4554): 32 µg/mL (≈ 22.4 µM)
  MIC Enterococcus faecalis (GC 6189): 32 µg/mL (≈ 22.4 µM)
  MIC Enterococcus faecium (GC 2243): 32 µg/mL (≈ 22.4 µM)
  MIC Enterococcus faecium (GC 4556): 32 µg/mL (≈ 22.4 µM)
  MIC Enterococcus faecium (GC 4557): 8 µg/mL (≈ 5.59 µM)
Enterococcus sp.; inoculum 5×10^5 CFU/mL, strain ATCC 29212
  MIC Enterococcus faecalis (ATCC 29212): 32 µg/mL (≈ 22.4 µM)
Enterococcus sp.; inoculum 5×10^5 CFU/mL, strain GC 2242
  MIC Enterococcus faecalis (GC 2242): 32 µg/mL (≈ 22.4 µM)
Enterococcus sp.; inoculum 5×10^5 CFU/mL, strain GC 2243
  MIC Enterococcus faecium (GC 2243): 32 µg/mL (≈ 22.4 µM)
Enterococcus sp.; inoculum 5×10^5 CFU/mL, strain GC 2691
  MIC Enterococcus faecalis (GC 2691): 32 µg/mL (≈ 22.4 µM)
Enterococcus sp.; inoculum 5×10^5 CFU/mL, strain GC 3059
  MIC Enterococcus faecalis (GC 3059): 32 µg/mL (≈ 22.4 µM)
Enterococcus sp.; inoculum 5×10^5 CFU/mL, strain GC 4552
  MIC Enterococcus faecalis (GC 4552): 32 µg/mL (≈ 22.4 µM)
Enterococcus sp.; inoculum 5×10^5 CFU/mL, strain GC 4553
  MIC Enterococcus faecalis (GC 4553): 32 µg/mL (≈ 22.4 µM)
Enterococcus sp.; inoculum 5×10^5 CFU/mL, strain GC 4554
  MIC Enterococcus faecalis (GC 4554): 32 µg/mL (≈ 22.4 µM)
Enterococcus sp.; inoculum 5×10^5 CFU/mL, strain GC 4556
  MIC Enterococcus faecium (GC 4556): 32 µg/mL (≈ 22.4 µM)
Enterococcus sp.; inoculum 5×10^5 CFU/mL, strain GC 4557
  MIC Enterococcus faecium (GC 4557): 8 µg/mL (≈ 5.59 µM)
Enterococcus sp.; inoculum 5×10^5 CFU/mL, strain GC 4558
  MIC Enterococcus avium (GC 4558): 16 µg/mL (≈ 11.2 µM)
Enterococcus sp.; inoculum 5×10^5 CFU/mL, strain GC 6189
  MIC Enterococcus faecalis (GC 6189): 32 µg/mL (≈ 22.4 µM)
Streptococcus sp.
  MIC Streptococcus agalactiae (GC 4564): 16 µg/mL (≈ 11.2 µM)
  MIC Streptococcus pneumoniae (ATCC 6301): 8 µg/mL (≈ 5.59 µM)
  MIC Streptococcus pneumoniae (GC 1894): 4 µg/mL (≈ 2.79 µM)
  MIC Streptococcus pneumoniae (GC 4565): 8 µg/mL (≈ 5.59 µM)
  MIC Streptococcus pyogenes (GC 4563): 16 µg/mL (≈ 11.2 µM)
Streptococcus sp.; inoculum 5×10^5 CFU/mL, strain ATCC 6301
  MIC Streptococcus pneumoniae (ATCC 6301): 8 µg/mL (≈ 5.59 µM)
Streptococcus sp.; inoculum 5×10^5 CFU/mL, strain GC 1894
  MIC Streptococcus pneumoniae (GC 1894): 4 µg/mL (≈ 2.79 µM)
Streptococcus sp.; inoculum 5×10^5 CFU/mL, strain GC 4563
  MIC Streptococcus pyogenes (GC 4563): 16 µg/mL (≈ 11.2 µM)
Streptococcus sp.; inoculum 5×10^5 CFU/mL, strain GC 4564
  MIC Streptococcus agalactiae (GC 4564): 16 µg/mL (≈ 11.2 µM)
Streptococcus sp.; inoculum 5×10^5 CFU/mL, strain GC 4565
  MIC Streptococcus pneumoniae (GC 4565): 8 µg/mL (≈ 5.59 µM)
Staphylococcus sp.; inoculum 5×10^5 CFU/mL
  MIC Staphylococcus aureus (GC 1131): 16 µg/mL (≈ 11.2 µM)
Staphylococcus sp.; strain ATCC 29213
  MIC Staphylococcus aureus (ATCC 29213): 16 µg/mL (≈ 11.2 µM)
Staphylococcus sp.
  MIC Staphylococcus aureus (GC 1131): 16 µg/mL (≈ 11.2 µM)
Staphylococcus sp.; strain GC 3051
  MIC Staphylococcus aureus (GC 3051): 16 µg/mL (≈ 11.2 µM)
Staphylococcus sp.; strain GC 3053
  MIC Staphylococcus aureus (GC 3053): 16 µg/mL (≈ 11.2 µM)
Staphylococcus sp.; strain GC 4541
  MIC Staphylococcus aureus (GC 4541): 8 µg/mL (≈ 5.59 µM)
Staphylococcus sp.; strain GC 4542
  MIC Staphylococcus aureus (GC 4542): 4 µg/mL (≈ 2.79 µM)
Staphylococcus sp.; strain GC 4543
  MIC Staphylococcus aureus-SMITH (GC 4543): 4 µg/mL (≈ 2.79 µM)
Staphylococcus sp.; strain GC 4544
  MIC Staphylococcus aureus (GC 4544): 16 µg/mL (≈ 11.2 µM)
Staphylococcus sp.; strain GC 4545
  MIC Staphylococcus aureus (GC 4545): 16 µg/mL (≈ 11.2 µM)
Staphylococcus sp.; strain GC 4546
  MIC Staphylococcus haemolyticus (GC 4546): 8 µg/mL (≈ 5.59 µM)
Staphylococcus sp.; strain GC 4547
  MIC Coagulase Negative Staphylococcus (GC 4547): 8 µg/mL (≈ 5.59 µM)
Staphylococcus sp.; strain GC 4548
  MIC Coagulase Negative Staphylococcus (GC 4548): 8 µg/mL (≈ 5.59 µM)
Staphylococcus sp.; strain GC 4549
  MIC Coagulase Negative Staphylococcus (GC 4549): 8 µg/mL (≈ 5.59 µM)
Staphylococcus sp.; strain GC 4551
  MIC Coagulase Negative Staphylococcus (GC 4551): 16 µg/mL (≈ 11.2 µM)
Staphylococcus sp.; strain GC 6257
  MIC Coagulase Negative Staphylococcus (GC 6257): 8 µg/mL (≈ 5.59 µM)
